Test systems include SNB-19 CNS; CCRF-CEM leukemia; KM12 colon; MALME-3M melanoma; NCI-H522 lung; OVCAR-5 ovarian; SF-539 CNS; HOP-62 NSCLC; SK-MEL-5 melanoma; TK-10 renal.
Experiment in all cases: NCI-60 cell line screen, 48 h

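Step 1: Grow cells in 96-well plates. Step 2: Expose to compound for 48 hours at 5 concentrations. Step 3: Interpolate endpoints linearly; if unreached, use highest concentration. GI50 is the concentration that inhibits growth by half. At the TGI there is no net growth.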

Regarding `CNC(=O)c1cn(C[C@H](F)CCc2ccc(NC(=O)Cc3cc(OC4CC(F)(F)C4)cc(C)n3)nn2)nn1`, the GI50 in the test on SNB-19 CNS is more than 100 µM; in the test with CCRF-CEM leukemia it was more than 45.8 µM; in the test on KM12 colon, more than 100 µM; with MALME-3M melanoma, more than 100 µM; with NCI-H522 lung, 5.18 µM; in the test with OVCAR-5 ovarian it was more than 100 µM. Also, the GI50 with SF-539 CNS, in the test on HOP-62 NSCLC, in the test on SK-MEL-5 melanoma and with TK-10 renal was more than 100 µM each time. Also, the TGI with SNB-19 CNS, in the test on CCRF-CEM leukemia, in the test on KM12 colon, in the test on MALME-3M melanoma, with NCI-H522 lung and in the test with OVCAR-5 ovarian was more than 100 µM each time. Besides, the TGI in the test with SF-539 CNS, in the test on HOP-62 NSCLC, in the test on SK-MEL-5 melanoma and with TK-10 renal was more than 100 µM each time.
Regarding `CN1CCN(Cc2ccc(NC(=O)c3ccc(C(C)(C)C)c(C#Cc4cnc5cccnn45)c3)cc2C(F)(F)F)CC1`, the GI50 in the test on SNB-19 CNS is 2.1 µM; in the test with CCRF-CEM leukemia, 1.93 µM; with KM12 colon it was 0.861 µM; with MALME-3M melanoma, 1.78 µM; in the test with NCI-H522 lung, 2.2 µM; in the test with OVCAR-5 ovarian, 2.71 µM. In addition, the GI50 with SF-539 CNS is 2.03 µM; in the test on HOP-62 NSCLC, 1.76 µM; in the test on SK-MEL-5 melanoma, 2.16 µM; with TK-10 renal, 2.62 µM. Moreover, the TGI was 4.14 µM in the test with SNB-19 CNS; 4.63 µM in the test with CCRF-CEM leukemia; 2.38 µM in the test on KM12 colon; 3.97 µM in the test on MALME-3M melanoma; 3.95 µM in the test with NCI-H522 lung; 7.18 µM with OVCAR-5 ovarian. The TGI with SF-539 CNS is 4.14 µM; with HOP-62 NSCLC, 3.35 µM; in the test on SK-MEL-5 melanoma, 4.86 µM; with TK-10 renal it was 7.02 µM.
With `NS(=O)(=O)c1ccc(NC(=O)c2cccc3c(=O)c4ccccc4[nH]c23)cc1`, the TGI was more than 100 µM with SNB-19 CNS; more than 100 µM with CCRF-CEM leukemia; 73.6 µM in the test on KM12 colon; 94.8 µM in the test with MALME-3M melanoma; 65.4 µM in the test on NCI-H522 lung; more than 100 µM in the test on OVCAR-5 ovarian. Also, the TGI in the test on SF-539 CNS, in the test with HOP-62 NSCLC, in the test with SK-MEL-5 melanoma and in the test with TK-10 renal was more than 100 µM throughout.
Take `COc1cc(/C=C\c2ccc(O)cc2)cc(OC)c1OC`: the TGI in the test on SNB-19 CNS was more than 100 µM; with CCRF-CEM leukemia, more than 100 µM; with KM12 colon, more than 100 µM; in the test with MALME-3M melanoma, more than 40.9 µM; in the test on NCI-H522 lung, more than 22.4 µM; in the test on OVCAR-5 ovarian it was more than 100 µM. Besides, the TGI with SF-539 CNS is more than 100 µM; with HOP-62 NSCLC, more than 100 µM; with SK-MEL-5 melanoma, 18.6 µM; with TK-10 renal, more than 100 µM.
As to `CCCCCC(C(O)C#N)C(O)(C(F)(F)F)C(F)(F)F` (stereo not given), the TGI with SNB-19 CNS, in the test with CCRF-CEM leukemia, in the test with KM12 colon, in the test on MALME-3M melanoma, in the test with NCI-H522 lung and in the test with OVCAR-5 ovarian was more than 10 µM in each case. The TGI in the test with SF-539 CNS, in the test on HOP-62 NSCLC, in the test on SK-MEL-5 melanoma and in the test on TK-10 renal was more than 10 µM each time.
Take `CC1(C)OC(=O)C=C([O-])O1.CC1(C)OC(=O)C=C([O-])O1.O=c1c(O)c(-c2ccc([O-])cc2[O-])oc2cc(O)cc(O)c12.[Ti+4]`: the TGI is more than 100 µM in the test on SNB-19 CNS; more than 100 µM in the test with CCRF-CEM leukemia; more than 100 µM in the test on KM12 colon; more than 100 µM with MALME-3M melanoma; 63 µM in the test on NCI-H522 lung; more than 100 µM with OVCAR-5 ovarian. Moreover, the TGI in the test on SF-539 CNS was 60.2 µM; in the test with HOP-62 NSCLC, more than 100 µM; in the test on SK-MEL-5 melanoma it was more than 100 µM; with TK-10 renal, more than 100 µM.
On to `Cc1c(-c2nc(N)nc(C3CC3)c2C)nc(N)nc1C1CC1`, for which the TGI with SNB-19 CNS, in the test on CCRF-CEM leukemia, in the test on KM12 colon, with MALME-3M melanoma, with NCI-H522 lung and in the test with OVCAR-5 ovarian was more than 100 µM throughout. For the same compound, the TGI in the test on SF-539 CNS, with HOP-62 NSCLC, in the test with SK-MEL-5 melanoma and in the test with TK-10 renal was more than 100 µM throughout.
`O=C(N/N=C/c1ccc(Cl)cc1Cl)c1ccccc1Nc1cccc(C(F)(F)F)c1`: the GI50 with SNB-19 CNS was 2.5 µM; in the test on CCRF-CEM leukemia it was 3.51 µM; with KM12 colon it was 9.07 µM; with MALME-3M melanoma, 2.62 µM; in the test on NCI-H522 lung it was 3.34 µM; in the test with OVCAR-5 ovarian, 24.3 µM. Also, the GI50 in the test with SF-539 CNS is 3.36 µM; in the test with HOP-62 NSCLC, 5.36 µM; with SK-MEL-5 melanoma, 26.5 µM; with TK-10 renal, 2.84 µM. In addition, the TGI in the test on SNB-19 CNS was 6.93 µM; in the test on CCRF-CEM leukemia, 19.3 µM; in the test on KM12 colon, more than 100 µM; with MALME-3M melanoma it was 10.5 µM; in the test on NCI-H522 lung, 20.7 µM; with OVCAR-5 ovarian, more than 100 µM. Moreover, the TGI in the test with SF-539 CNS was 12.8 µM; in the test on HOP-62 NSCLC it was 18.3 µM; with SK-MEL-5 melanoma it was more than 100 µM; with TK-10 renal, 9.22 µM.
`CC1(C)CCc2cc3c(cc2O1)OCCC3=O`: the TGI with SNB-19 CNS, in the test on CCRF-CEM leukemia, with KM12 colon, in the test on MALME-3M melanoma, with NCI-H522 lung and with OVCAR-5 ovarian was more than 100 µM each time. The TGI in the test on SF-539 CNS, in the test on HOP-62 NSCLC, with SK-MEL-5 melanoma and with TK-10 renal was more than 100 µM in each case.
As to `Cc1ccc([N+](=O)[O-])c2c(NCCCN(C)C)ccnc12`, the TGI in the test on SNB-19 CNS was more than 100 µM; with CCRF-CEM leukemia it was more than 100 µM; with KM12 colon, more than 100 µM; in the test with MALME-3M melanoma it was 44.8 µM; in the test on NCI-H522 lung it was 55.8 µM; in the test with OVCAR-5 ovarian, more than 100 µM. The TGI with SF-539 CNS is more than 77 µM; with HOP-62 NSCLC, more than 100 µM; in the test on SK-MEL-5 melanoma, 72.8 µM; in the test with TK-10 renal, more than 100 µM.

(Values after PubChem BioAssay (NCI).)
